Results taken from patent US20240116985A1, “STAPLED PEPTIDES AND METHODS THEREOF” (priority 2020, published 2024).
Like-named read-outs stand apart in the source and are kept apart here.

Key:
[1] = target: T1, full-length beta-Catenin (Uniprot ID P35222) (Homo sapiens, UniProt P35222); assay: Fluorescence polarization IC50 (beta-catenin / 5FAM-TCF4 10-53 competition); assay type: binding; settings: fluorescence polarization
T1 construct: 10 nM full-length beta-Catenin (Uniprot ID P35222)
T1 sequence (P35222 1-781): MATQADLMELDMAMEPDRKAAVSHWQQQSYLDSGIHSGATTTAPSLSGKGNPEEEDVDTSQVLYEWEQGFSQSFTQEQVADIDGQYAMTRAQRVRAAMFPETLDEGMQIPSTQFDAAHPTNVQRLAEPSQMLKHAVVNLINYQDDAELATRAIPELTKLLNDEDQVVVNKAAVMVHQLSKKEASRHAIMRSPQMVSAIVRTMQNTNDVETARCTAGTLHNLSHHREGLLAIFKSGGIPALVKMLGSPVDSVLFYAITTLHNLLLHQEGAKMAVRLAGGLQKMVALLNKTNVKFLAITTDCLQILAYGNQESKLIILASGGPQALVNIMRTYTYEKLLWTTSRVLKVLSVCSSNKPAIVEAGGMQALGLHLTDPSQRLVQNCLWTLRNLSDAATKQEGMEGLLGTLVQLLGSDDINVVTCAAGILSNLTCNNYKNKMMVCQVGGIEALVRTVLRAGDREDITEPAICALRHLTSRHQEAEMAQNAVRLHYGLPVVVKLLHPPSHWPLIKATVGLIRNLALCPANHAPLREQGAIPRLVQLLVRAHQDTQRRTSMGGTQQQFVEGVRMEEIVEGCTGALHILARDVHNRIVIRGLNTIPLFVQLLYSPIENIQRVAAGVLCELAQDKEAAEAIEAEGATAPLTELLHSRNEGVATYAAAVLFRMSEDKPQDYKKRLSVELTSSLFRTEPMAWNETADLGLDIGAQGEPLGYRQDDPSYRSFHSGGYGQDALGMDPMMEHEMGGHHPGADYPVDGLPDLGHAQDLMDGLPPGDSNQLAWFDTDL

[2] = target: T2, beta-catenin/TCF4 engagement (Homo sapiens, UniProt P35222); assay: Nano-BRET target engagement assay (B-cat-Halo & TCF4-Luc in HEK293 cells); assay type: cell-based; settings: read-out: NanoBRET Abs IC50
T2 construct: expressed in transfected cells; host or cells: HEK293
T2 sequence (P35222 1-781): T1 sequence (P35222 1-781)

| SMILES | IC50 ([1]; read-out: beta-Catenin FP IC50) | IC50 ([2]; absolute IC50) | IC50 [2] | IC50 ([1]; beta-catenin, read-out: FP EC50) |
| --- | --- | --- | --- | --- |
| CC(=O)N1CCC[C@]12CC=CCCCC1(CCCC=CCCCOC(=O)N3CC[C@@](C(=O)N[C@@H](Cc4ccccc4Cl)C(=O)N[C@@H](Cc4csc5ccccc45)C(=O)N[C@@H](CCC(N)=O)C(N)=O)(C3)NC(=O)[C@H]([C@@H](C)O)NC(=O)[C@H](Cc3ccccc3)NC(=O)CNC(=O)[C@H](C)NC(=O)[C@H](CN(CC(=O)O)CC(F)(F)F)NC(=O)[C@H](CC(=O)O)NC1=O)NC(=O)[C@H](CC(C)(C)C)NC(=O)[C@H](CC(=O)O)NC2=O (stereo partly drawn) [I-1694, Ac-PL3-Asp-Npg-B5-Asp-TfeGA-Ala-Gly-Phe-Thr-PyrS2-2C1F-BztA-Gln-NH2] | 57 nM | 43600 nM |  |  |
| CC(=O)N1CCC[C@]12CC=CCCCC1(CCCC=CCCCOC(=O)N3CC[C@@](C(=O)N[C@@H](Cc4ccccc4C(F)(F)F)C(=O)N[C@@H](Cc4ccc5c(c4)CCC5)C(=O)N[C@@H](CO)C(N)=O)(C3)NC(=O)[C@H](CC(C)C)NC(=O)[C@H](Cc3ccccc3)NC(=O)[C@H](C)NC(=O)[C@H](C)NC(=O)[C@H](Cc3cccc(C(=O)O)c3)NC(=O)[C@H](CC(=O)O)NC1=O)NC(=O)[C@H](CC(C)(C)C)NC(=O)[C@H](CC(=O)O)NC2=O (stereo partly drawn) [I-2297, Ac-PL3-Asp-Npg-B5-Asp-3COOHF-Ala-Ala-Phe-Leu-PyrS2-2F3MeF-5IndA-Ser-NH2] | 68 nM | 5500 nM |  |  |
| CC(=O)N1CCC[C@]12CC=CCCCC1(CCCC=CCCCOC(=O)N3CC[C@@](C(=O)N[C@@H](Cc4ccccc4Cl)C(=O)N[C@@H](Cc4csc5ccccc45)C(=O)N[C@H](C)C(N)=O)(C3)NC(=O)[C@H](C)NC(=O)[C@H](Cc3ccccc3)NC(=O)[C@H](C)NC(=O)[C@H](C)NC(=O)[C@H](Cc3cccc(C(=O)O)c3)NC(=O)[C@H](CC(=O)O)NC1=O)NC(=O)[C@H](CC(C)(C)C)NC(=O)[C@H](CC(=O)O)NC2=O (stereo partly drawn) [I-2026, Ac-PL3-Asp-Npg-B5-Asp-3COOHF-Ala-Ala-Phe-Ala-PyrS2-2C1F-BztA-dAla-NH2] | 26 nM |  | 9700 nM |  |
| CC(=O)N1CCC[C@]12CC=CCCCC1(CCCC=CCCCOC(=O)N3CC[C@@](C(=O)N[C@@H](Cc4ccsc4)C(=O)N[C@@H](Cc4csc5ccccc45)C(=O)N[C@H](C)C(N)=O)(C3)NC(=O)[C@H](Cc3ccccc3)NC(=O)[C@H](Cc3ccccc3)NC(=O)[C@H](C)NC(=O)[C@H](C)NC(=O)[C@H](Cc3cccc(C(=O)O)c3)NC(=O)[C@H](CC(=O)O)NC1=O)NC(=O)[C@H](CC(C)(C)C)NC(=O)[C@H](CC(=O)O)NC2=O (stereo partly drawn) [I-2094, Ac-PL3-Asp-Npg-B5-Asp-3COOHF-Ala-Ala-Phe-Phe-PyrS2-3Thi-BztA-dAla-NH2] | 28 nM |  | 9700 nM |  |
| CC(=O)N1CCC[C@]12CC=CCCCC1(CCCC=CCCCOC(=O)N3CC[C@@](C(=O)N[C@@H](Cc4ccsc4)C(=O)N[C@@H](Cc4csc5ccccc45)C(=O)N[C@H](CO)[C@@H](C)O)(C3)NC(=O)[C@H](Cc3ccccc3)NC(=O)[C@H](Cc3ccccc3)NC(=O)[C@H](C)NC(=O)[C@H](C)NC(=O)[C@H](Cc3ccccc3C(=O)O)NC(=O)[C@H](CC(=O)O)NC1=O)NC(=O)[C@H](CC(C)(C)C)NC(=O)[C@H](CC(=O)O)NC2=O (single isomer, unassigned) [I-1669, Ac-PL3-Asp-Npg-B5-Asp-2COOHF-Ala-Ala-Phe-Phe-PyrS2-3Thi-BztA-Thro1] | 30 nM | 11800 nM |  |  |
| CCCC[C@@H]1NC(=O)[C@H](Cc2ccccc2)NC(=O)[C@H](C)NC(=O)C(C)(C)NC(=O)[C@H](Cc2cccc(C(=O)O)c2)NC(=O)[C@H](CC(=O)O)NC(=O)C2(CCCC=CCCCOC(=O)N3CC[C@@](C(=O)N[C@@H](Cc4ccsc4)C(=O)N[C@@H](Cc4csc5ccccc45)C(=O)N[C@@H](CCC(=O)N4CCN(C(C)=O)CC4)C(N)=O)(C3)NC1=O)CCCC=CC[C@]1(CCCN1C(C)=O)C(=O)N[C@@H](CC(=O)O)C(=O)N[C@@H](CC(C)(C)C)C(=O)N2 (stereo partly drawn) [I-2556, Ac-PL3-Asp-Npg-B5-Asp-3COOHF-Aib-Ala-Phe-nLeu-PyrS2-3Thi-BztA-[AcPpz]GlnR-NH2] | 6 nM | 7000 nM |  |  |

Now from value to compound:

| IC50 ([1]; read-out: beta-Catenin FP IC50) | IC50 ([2]; absolute IC50) | IC50 [2] | IC50 ([1]; beta-catenin, read-out: FP EC50) | SMILES |
| --- | --- | --- | --- | --- |
| 9 nM | 27800 nM |  |  | CC(=O)N1CCC[C@]12CC=CCCCC1(CCCC=CCCCOC(=O)N3CC[C@@](C(=O)N[C@@H](Cc4ccccc4Cl)C(=O)N[C@@H](Cc4csc5ccccc45)C(=O)N[C@@H](CCC(N)=O)C(N)=O)(C3)NC(=O)[C@H](CC(C)C)NC(=O)[C@H](Cc3ccccc3)NC(=O)[C@H](C)NC(=O)[C@H](CCCCNC(C)C)NC(=O)[C@H](CC(=O)O)NC(=O)[C@H](CC(=O)O)NC1=O)NC(=O)[C@H](CC(C)(C)C)NC(=O)[C@H](CC(=O)O)NC2=O (stereo partly drawn) [I-1275, Ac-PL3-Asp-Npg-B5-Asp-Asp-iPrLys-Ala-Phe-Leu-PyrS2-2C1F-BztA-Gln-NH2] |
| 231 nM | > 20000 nM |  |  | CC(=O)N1CCC[C@]12CC=CCCCC1(CCCC=CCCCOC(=O)N3CC[C@@](C(=O)N[C@@H](Cc4ccsc4)C(=O)N[C@@H](Cc4csc5ccccc45)C(=O)N[C@@H](CCC(N)=O)C(N)=O)(C3)NC(=O)[C@H](CC(N)=O)NC(=O)[C@H](Cc3ccccc3)NC(=O)[C@H](C)NC(=O)[C@H](C)NC(=O)[C@H](CCC(N)=O)NC(=O)[C@H](CC(N)=O)NC1=O)NC(=O)[C@H](CC(C)(C)C)NC(=O)[C@H](CC(=O)O)NC2=O (stereo partly drawn) [I-1566, Ac-PL3-Asp-Npg-B5-Asn-Gln-Ala-Ala-Phe-Asn-PyrS2-3Thi-BztA-Gln-NH2] |
| 16 nM | 29300 nM |  | 16 nM | CC(=O)N1CCC[C@]12CC=CCCCC1(CCCC=CCCCOC(=O)N3CC[C@@](C(=O)N[C@@H](Cc4ccccc4Cl)C(=O)N[C@@H](Cc4csc5ccccc45)C(=O)N[C@@H](CCC(N)=O)C(N)=O)(C3)NC(=O)[C@H](CC(N)=O)NC(=O)[C@H](Cc3ccccc3)NC(=O)[C@H](C)NC(=O)[C@H](C)NC(=O)[C@H](CN(CC(=O)O)Cc3c(F)c(F)c(F)c(F)c3F)NC(=O)[C@H](CC(=O)O)NC1=O)NC(=O)[C@H](CC(C)(C)C)NC(=O)[C@H](CC(=O)O)NC2=O (stereo partly drawn) [I-1449, Ac-PL3-Asp-Npg-B5-Asp-[Pfbn]GA-Ala-Ala-Phe-Asn-PyrS2-2C1F-BztA-Gln-NH2] |
| 11 nM | > 20000 nM |  |  | CC(=O)N1CCC[C@]12CC=CCCCC1(CCCC=CCCCOC(=O)N3CC[C@@](C(=O)N[C@@H](Cc4ccsc4)C(=O)N[C@@H](Cc4csc5ccccc45)C(=O)N[C@@H](CCC(N)=O)C(N)=O)(C3)NC(=O)[C@H](CC(N)=O)NC(=O)[C@H](Cc3ccccc3)NC(=O)[C@H](C)NC(=O)[C@H](C)NC(=O)[C@H](Cc3cccc(-c4nnn[nH]4)c3)NC(=O)[C@H](CC(=O)O)NC1=O)NC(=O)[C@H](CC(C)(C)C)NC(=O)[C@H](CC(=O)O)NC2=O (stereo partly drawn) [I-1578, Ac-PL3-Asp-Npg-B5-Asp-3TzF-Ala-Ala-Phe-Asn-PyrS2-3Thi-BztA-Gln-NH2] |
| 236 nM | > 20000 nM |  |  | CC(=O)N1CCC[C@]12CC=CCCCC1(CCCC=CCOC(=O)N3CC[C@@](C(=O)N[C@@H](Cc4ccsc4)C(=O)N[C@@H](Cc4csc5ccccc45)C(=O)N[C@@H](CCC(N)=O)C(N)=O)(C3)NC(=O)[C@H](CC(C)C)NC(=O)[C@H](Cc3ccccc3)NC(=O)[C@H](C)NC(=O)[C@H](C)NC(=O)[C@H](CC(=O)O)NC(=O)[C@H](CC(=O)O)NC1=O)NC(=O)[C@H](CC(C)(C)C)NC(=O)[C@H](CC(=O)O)NC2=O (stereo partly drawn) [I-1818, Ac-PL3-Asp-Npg-B5-Asp-Asp-Ala-Ala-Phe-Leu-PyrS-3Thi-BztA-Gln-NH2] |
